Results published in patent publication US7964399B2, “Cell line comprising vector encoding truncated FLK-1 receptor” (Max-Planck-Gesellschaft zur Forderung der Wissenschaften …, priority 1992, dated 2011).
Entries after “also recorded” stand apart in the source; their conditions may differ.

Experiments:
[1] = biological target: murine Flk-1 receptor (fetal liver kinase 1), full length, wild type, 180 kD (mouse) (UniProt P35918); test: cell-based or functional assay
[2] = biological target: T1, Flk-1 (Mus musculus, UniProt P35918, P25T); test: VEGF-induced autophosphorylation of Flk-1 in COS cells; format: cell-based; set-up: expressed in transfected cells; dose or concentration left out as unconfirmed; settings: COS1 cells transiently expressing Flk-1, stimulated with VEGF
[3] = biological target: T1, Flk-1; test: 125I-VEGF competition binding to COS-1 cells transiently expressing Flk-1; set-up: the full-length Flk-1 cDNA was cloned into the mammalian expression vector PCMV; expressed in transfected cells; host or cells: COS-1 (transient, CMV-promoter vector); settings: for competition with binding of 125I-VEGF: Flk-1 transfected COS-1 cells
[4] = biological target: T1, Flk-1; test: [3H]thymidine incorporation (mitogenic response) in Flk-1-expressing NIH 3T3 cells; format: cell-based; set-up: the full-length Flk-1 cDNA was cloned into the mammalian expression vector PCMV; expressed in transfected cells; settings: 3T3 Flk-1 cell line
Text: The dominant-negative potential of Flk-1 TM was first examined by measuring its influence on the mitogenic response of Flk-1-expressing NIH 3T3 cells after superinfection with the Flk-1 TM virus.

[5] = biological target: T1, Flk-1; test: Cellular Flk-1 assay: VEGF-stimulated Flk-1 receptor autophosphorylation, antiphosphotyrosine Western blot; format: cell-based; set-up: expressed in transfected cells; host or cells: NIH 3T3 (3T3 Flk-1 cell line); settings: test concentration 100 μM, FIG. 17, NIH3T3 cells expressing Flk-1
Method: FIG. 17. Inhibition of VEGF stipulatory activity of Flk-1. Test compounds and VEGF were co-incubated on cells expressing the Flk-1 receptor. The level of tyrosine phosphorylation was measured in a Western blot format using an antiphosphotyrosine antibody. […] (Compounds A7, A8, and A10 were toxic to these cells resulting in cell death.).
Organic compounds that modulate Flk-1 receptor mediated signal transduction can be assayed in a cellular Flk-1 assay wherein modulation of Flk-1 receptor autophosphorylation is measured using an antiphosphotyrosine antibody. In the example shown below, the results are analyzed using a Western blot of electrophoresed cell lysates. Levels of phosphorylation as be measured by other techniques known in the art.
NIH3T3 cells expressing high levels of Flk-1 were seeded in 12-well plates at 250,000 cells/well in DMEM+0.5% calf serum and incubated overnight at 37° C. plus or minus the test substance. […]
For the Western blot assay, forty microliters of saved supernatant per lane were loaded onto a 7.5% SDS-PAGE gel (10 lanes/gel, 1.5 mm thick) and run at 120 V until the dye reached the bottom of the gel. […] Protein bands were detected by soaking the membrane in ECL chemiluminescence system (Amersham Corp., prepared by mixing equal volumes of reagent 1 and 2) for 1 minute and then exposing the film for about 1-10 minutes.

[6] = biological target: T2, Flk-1 TM, truncated transdominant-negative Flk-1 receptor mutant (amino acids 1 through 806), 130 kD (mouse, UniProt P35918 20-806); test: ^125I-VEGF binding to 3T3 Flk-1/Flk-1 TM cells against the parental 3T3 Flk-1 cells
T2 construct: Lacks the 561 C-terminal amino acids of the intracellular kinase domain; keeps the transmembrane domain and 23 residues of the cytoplasmic domain; A BglII/HpaI linker with a stop codon (5' GTC ATG GAT CTT CGT TAA 3') may add or change a few C-terminal residues; Expressed in cells (COS, NIH 3T3); also called truncated Flk-1 receptor; pLXSN Flk-1 TM cl.1

[7] = biological target: T3, murine Flk-1 receptor (fetal liver kinase 1), full length, wild type, 180 kD (mouse, UniProt P35918 20-1345); test: competition binding of unlabeled VEGF against 10 pM ^125I-VEGF on COS-1 cells expressing Flk-1, analysis by Munson and Rodbard
T3 construct: Full-length Flk-1 cDNA in pCMV, transiently expressed in COS-1 cells; also stably expressed in NIH 3T3 cells; also called Flk-1 RTK; wild type Flk-1
Method: FIGS. 9A and 9B. Flk-1 is a receptor for VEGF. […] The cells were lysed, Flk-1 receptor immunoprecipitated, and analyzed by polyacrylamide gel electrophoresis followed by autoradiography. Molecular size markers are indicated in kilodaltons. […] COS cells transiently expressing Flk-1 were removed from the plate and resuspended in binding medium (DMEM, 25 mM Hepes, 0.15% gelatin). […] The cells were washed twice with PBS/0.1% BSA and counted in a gamma counter.
Ligand binding experiments were performed as described previously (Schumacher, R. et al., 1991, J. Biol. Chem. 266: 19288-19295), COS-1 cells were grown in a 15-cm culture dish in DMEM for 48 h after transfection. Cells were then washed carefully with PBS and incubated with 5 ml of 25 mM EDTA in PBS for 10 min. Cells were then removed from the plate, washed once with binding buffer (DMEM, 25 mM HEPES, pH 7.5, 0.15% gelatin) and resuspended in 5 ml of binding buffer to determine the cell number. […] Data obtained were analyzed by the method of Munson, P. J. and Rodbard, D. (1980 Anal. Biochem. 107:220-235).

T1 sequence (P35918 with tags, fused parts or gaps P25T limits assumed): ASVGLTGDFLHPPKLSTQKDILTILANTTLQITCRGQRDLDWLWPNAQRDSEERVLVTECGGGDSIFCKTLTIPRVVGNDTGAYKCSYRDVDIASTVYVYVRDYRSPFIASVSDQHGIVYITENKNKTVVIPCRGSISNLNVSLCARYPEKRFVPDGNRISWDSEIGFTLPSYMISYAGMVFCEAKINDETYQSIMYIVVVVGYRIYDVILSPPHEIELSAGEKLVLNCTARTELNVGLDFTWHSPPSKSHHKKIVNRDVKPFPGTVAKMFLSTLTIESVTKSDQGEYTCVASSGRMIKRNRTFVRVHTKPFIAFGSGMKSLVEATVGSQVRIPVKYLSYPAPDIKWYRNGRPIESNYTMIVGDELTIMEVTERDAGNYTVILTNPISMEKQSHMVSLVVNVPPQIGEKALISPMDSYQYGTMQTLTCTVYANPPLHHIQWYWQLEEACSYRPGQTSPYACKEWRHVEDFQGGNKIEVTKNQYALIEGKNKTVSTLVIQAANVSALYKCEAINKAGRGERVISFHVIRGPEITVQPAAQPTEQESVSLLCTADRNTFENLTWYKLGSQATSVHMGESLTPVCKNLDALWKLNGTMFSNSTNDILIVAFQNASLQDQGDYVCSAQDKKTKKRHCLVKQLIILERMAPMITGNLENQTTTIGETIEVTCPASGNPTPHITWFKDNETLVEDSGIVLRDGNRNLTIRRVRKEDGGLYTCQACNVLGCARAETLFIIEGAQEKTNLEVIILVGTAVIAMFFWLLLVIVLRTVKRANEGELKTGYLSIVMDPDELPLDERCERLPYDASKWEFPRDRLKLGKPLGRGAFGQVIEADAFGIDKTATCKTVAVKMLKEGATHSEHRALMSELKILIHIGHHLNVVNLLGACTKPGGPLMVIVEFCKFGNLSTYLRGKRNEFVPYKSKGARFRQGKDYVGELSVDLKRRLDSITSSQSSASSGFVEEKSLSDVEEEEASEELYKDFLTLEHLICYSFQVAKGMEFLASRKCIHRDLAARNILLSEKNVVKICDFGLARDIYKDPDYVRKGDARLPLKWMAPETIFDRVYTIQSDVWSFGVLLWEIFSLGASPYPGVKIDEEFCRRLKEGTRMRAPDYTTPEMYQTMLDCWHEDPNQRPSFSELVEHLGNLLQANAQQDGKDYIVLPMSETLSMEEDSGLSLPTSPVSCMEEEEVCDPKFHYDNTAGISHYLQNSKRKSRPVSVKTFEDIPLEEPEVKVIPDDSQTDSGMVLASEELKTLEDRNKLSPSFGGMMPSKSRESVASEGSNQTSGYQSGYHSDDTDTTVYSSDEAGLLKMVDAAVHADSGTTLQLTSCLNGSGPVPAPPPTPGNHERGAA
murine Flk-1 receptor (fetal liver kinase 1), full length, wild type, 180 kD (mouse), sequence (P35918 other isoform, or with tags, fused parts or gaps limits assumed): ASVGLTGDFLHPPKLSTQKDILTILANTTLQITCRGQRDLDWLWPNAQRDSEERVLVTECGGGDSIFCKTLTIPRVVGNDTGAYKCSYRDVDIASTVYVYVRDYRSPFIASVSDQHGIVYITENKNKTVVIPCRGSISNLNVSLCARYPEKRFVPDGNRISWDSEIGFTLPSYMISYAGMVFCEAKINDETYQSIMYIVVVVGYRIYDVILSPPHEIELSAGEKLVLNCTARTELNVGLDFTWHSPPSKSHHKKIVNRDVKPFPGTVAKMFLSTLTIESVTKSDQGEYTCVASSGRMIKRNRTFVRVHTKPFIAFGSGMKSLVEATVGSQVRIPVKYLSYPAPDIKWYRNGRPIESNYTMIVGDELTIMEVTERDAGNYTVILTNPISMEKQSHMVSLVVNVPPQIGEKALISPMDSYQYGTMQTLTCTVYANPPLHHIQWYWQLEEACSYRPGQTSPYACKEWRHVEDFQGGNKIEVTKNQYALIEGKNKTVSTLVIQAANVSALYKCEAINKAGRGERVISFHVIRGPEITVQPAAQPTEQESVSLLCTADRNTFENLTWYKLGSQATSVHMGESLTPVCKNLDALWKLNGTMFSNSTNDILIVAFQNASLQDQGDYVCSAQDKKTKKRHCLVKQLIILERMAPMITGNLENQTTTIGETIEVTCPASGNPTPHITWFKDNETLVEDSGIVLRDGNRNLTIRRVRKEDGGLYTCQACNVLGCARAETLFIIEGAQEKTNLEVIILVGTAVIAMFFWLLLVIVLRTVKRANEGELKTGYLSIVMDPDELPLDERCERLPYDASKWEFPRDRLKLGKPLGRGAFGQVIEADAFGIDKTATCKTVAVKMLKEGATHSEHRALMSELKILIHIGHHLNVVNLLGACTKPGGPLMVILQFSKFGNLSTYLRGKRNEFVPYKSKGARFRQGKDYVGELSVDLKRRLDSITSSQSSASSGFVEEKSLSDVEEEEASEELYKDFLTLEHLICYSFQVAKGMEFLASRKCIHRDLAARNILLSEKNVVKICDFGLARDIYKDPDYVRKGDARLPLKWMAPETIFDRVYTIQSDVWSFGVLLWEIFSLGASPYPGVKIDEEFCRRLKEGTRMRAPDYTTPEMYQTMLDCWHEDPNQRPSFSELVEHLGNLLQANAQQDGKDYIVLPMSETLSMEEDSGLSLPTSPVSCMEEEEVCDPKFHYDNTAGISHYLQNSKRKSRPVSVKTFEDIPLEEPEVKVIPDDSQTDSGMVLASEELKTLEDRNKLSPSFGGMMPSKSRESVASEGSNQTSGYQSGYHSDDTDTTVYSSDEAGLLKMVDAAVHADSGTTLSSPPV
T3 sequence (P35918 other isoform, or with tags, fused parts or gaps limits assumed): as above
T2 sequence (P35918 other isoform, or with tags, fused parts or gaps mutant): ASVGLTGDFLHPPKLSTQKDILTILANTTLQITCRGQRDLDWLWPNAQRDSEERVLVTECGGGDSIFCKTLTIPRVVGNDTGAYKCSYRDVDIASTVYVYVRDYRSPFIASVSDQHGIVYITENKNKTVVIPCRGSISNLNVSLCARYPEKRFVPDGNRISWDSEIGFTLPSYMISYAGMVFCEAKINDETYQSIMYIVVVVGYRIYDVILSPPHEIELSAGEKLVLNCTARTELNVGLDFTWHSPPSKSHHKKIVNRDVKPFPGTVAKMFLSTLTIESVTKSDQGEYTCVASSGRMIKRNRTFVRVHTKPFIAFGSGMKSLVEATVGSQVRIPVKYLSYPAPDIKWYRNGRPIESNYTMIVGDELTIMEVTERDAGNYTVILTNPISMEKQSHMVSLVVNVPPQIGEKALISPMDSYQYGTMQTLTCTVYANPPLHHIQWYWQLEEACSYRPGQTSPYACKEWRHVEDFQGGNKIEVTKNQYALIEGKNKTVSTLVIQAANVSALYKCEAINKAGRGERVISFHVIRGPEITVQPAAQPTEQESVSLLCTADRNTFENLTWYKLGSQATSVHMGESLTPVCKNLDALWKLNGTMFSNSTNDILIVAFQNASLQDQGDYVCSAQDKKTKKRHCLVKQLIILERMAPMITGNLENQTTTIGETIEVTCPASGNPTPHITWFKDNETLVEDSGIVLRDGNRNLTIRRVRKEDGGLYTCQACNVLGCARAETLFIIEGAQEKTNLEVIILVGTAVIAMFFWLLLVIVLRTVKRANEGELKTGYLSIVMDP

VEGF (preparation not specified) used for stimulation of cells (ligand)
[^3H] thymidine incorporation in the 3T3 Flk-1 cell line, EC50 [1]: 0.1 nM | [^3H] thymidine incorporation in the 3T3 Flk-1 cell line, concentration of maximal stimulation [1]: 500 pM

vascular endothelial growth factor [VEGF]
tyrosine phosphorylation of the 180 kD Flk-1 receptor [2]: significant induction | Kd ([3]; Flk-1 expressing COS-1 cells, 125I-VEGF, 15° C., 90 min): ~0.1 nM | competition with binding of 125I-VEGF [3]: competed | EC50 [4]: ~0.1 nM | concentration giving maximal stimulation of [3H] thymidine incorporation [4]: 500 pM

c1ccc(-c2cnc3cc4ccccc4cc3n2)cc1 [Compound A14]
inhibition of VEGF-stimulated Flk-1 receptor phosphorylation [5]: almost completely; also recorded: completely inhibited

PDGF-BB: growth factor used as specificity control in 125I-VEGF competition binding [reference compound]
competition with binding of 125I-VEGF [3]: did not compete

B1: ^125I-labeled recombinant human VEGF (ligand, UniProt P15692-4 27-191, looked up)
chain: APMAEGGGQNHHEVVKFMDVYQRSYCHPIETLVDIFQEYPDEIEYIFKPSCVPLMRCGGCCNDEGLECVPTEESNITMQIMRIKPHQGQHIGEMSFLQHNKCECRPKKDRARQENPCGPCSERRKHLFVQDPQTCKCSCKNTDSRCKARQLELNERTCRCDKPRR
modifications: radioiodinated (^125I) by the procedure of Hunter and Greenwood; positions not given
notes: also called iodinated VEGF
fold increase of cell surface receptors against the parental 3T3 Flk-1 line [6]: 6 fold

B2: unlabeled VEGF (164 amino acid form), partially purified from conditioned media of COS-1 cells transiently expressing VEGF (ligand, UniProt Q00731-2 27-190, looked up)
chain: APTTEGEQKSHEVIKFMDVYQRSYCRPIETLVDIFQEYPDEIEYIFKPSCVPLMRCAGCCNDEALECVPTSESNITMQIMRIKPHQSQHIGEMSFLQHSRCECRPKKDRTKPENHCEPCSERRKHLFVQDPQTCKCSCKNTDSRCKARQLELNERTCRCDKPRR
notes: Partially purified on heparin columns; also called unlabeled ligand
Kd [7]: ~0.1 nM
